Assay [1] has as its system QR activity in Hepa 1c1c7 murine hepatoma cells. The experiment in a line: Inducer potential: QR induction in Hepa 1c1c7 microtiter bioassay, myrosinase-treated extracts. Particulars: ammonium salts of isolated peaks. It is filed as cell-based. On the procedure: Inducer potential or Phase 2 enzyme-inducing potential is a measure of the combined amounts of inducer activity in plant tissue provided by isothiocyanates, plus glucosinolates that can be converted by myrosinase to isothiocyanates. Glucosinolates are not themselves inducers of mammalian Phase 2 enzymes, whereas isothiocyanates are inducers. Inducer potential therefore is defined herein as QR activity in murine 1c1c7 hepatoma cells incubated with myrosinase-treated extracts of the sprouts, seeds or other plant parts. In the present invention therefore inducer potential is measured by means of the murine hepatoma cell bioassay of QR activity in vitro as described above. Inducer potential is measured in Hepa 1c1c7 murine hepatoma cells grown in 96-well microtiter plates. […] Hepatoma cells are grown for 24 hours and a plant extract containing microgram quantities of fresh plant tissue is serially diluted across the microtiter plates into fresh culture medium containing 0.15 ml αMEM culture medium amended with 10% Fetal Calf Serum (FCS) and streptomycin and penicillin. […] QR activity (based on the formation of the blue-brown reduced tetrazolium dye) is measured with an optical microtiter plate scanner in cell lysates prepared in one plate, and related to its protein concentration. Quantitative information on specific activity of QR is obtained by computer analysis of absorbances. […]

The test system is the same in assay [2]. The experiment in a line: Inducer activity: QR induction in Hepa 1c1c7 microtiter bioassay, extracts untreated with myrosinase. The assay is classed as cell-based. Particulars: without myrosinase hydrolysis. As for the experimental part:
Inducer activity or Phase 2 enzyme-inducing activity is a measure of the ability of a compound(s) to induce Phase 2 enzyme activity. In the present invention, inducer activity is measured by means of the murine hepatoma cell bioassay of QR activity in vitro. Inducer activity is defined herein as QR inducing activity in Hepa 1c1c7 cells (murine hepatoma cells) incubated with extracts of sprouts, seeds or other plant parts untreated with myrosinase. Inducer activity is measured in Hepa 1c1c7 murine hepatoma cells grown in 96-well microtiter plates. Typically 10,000 Hepa 1c1c7 cells are introduced into each well. Hepatoma cells are grown for 24 hours and a plant extract containing microgram quantities of fresh plant tissue is serially diluted across the microtiter plates into fresh culture medium containing 0.15 ml αMEM culture medium amended with 10% Fetal Calf Serum (FCS) and streptomycin and penicillin. The cells are further incubated for 48 hours. QR activity (based on the formation of the blue-brown reduced tetrazolium dye) is measured with an optical microtiter plate scanner in cell lysates prepared in one plate, and related to its protein concentration. Quantitative information on specific activity of QR is obtained by computer analysis of the absorbances. One unit of inducer activity is the amount that when added to a single microtiter well doubles the QR activity. […]

Assay [3] shares this test system. Particulars: reported values, cited from earlier work.

The values that follow come from patent US7303770B2, “Cancer chemoprotective food products” (Johns Hopkins School of Medicine, priority 1997, dated 2007).

On to `C[S+]([O-])CCCC/C(=N\OS(=O)(=O)O)S[C@@H]1O[C@H](CO)[C@@H](O)[C@H](O)[C@H]1O` (single isomer, unassigned; peak a) [Peak A, 4-methylsulfinylbutyl glucosinolate], for which the “Inducer potency after myrosinase hydrolysis” value in assay [1] is reported as 36,100 units/μmol. Moreover, the “Inducer activity of isolated PIC peaks” value in assay [2] is “no significant inducer activity”.

With `CSCCCCC(=NOS(=O)(=O)O)S[C@@H]1O[C@H](CO)[C@@H](O)[C@H](O)[C@H]1O` (single isomer, unassigned; peak c) [Peak C, 4-methythiobutyl glucosinolate], the “Inducer potency after myrosinase hydrolysis” value in assay [1] was 4,360 units/μmol. Moreover, the “Inducer activity of isolated PIC peaks” value in assay [2] was “no significant inducer activity”.

In the case of `C[S+]([O-])CCCCN=C=S` (stereo not drawn) [sulforaphane], the “Inducer potency corresponding to reported CD value” in assay [3] (Hepa 1c1c7) was 33,333 units/μmol. Also, the “CD value (concentration required to double QR specific activity)” value in assay [3] (Hepa 1c1c7 murine hepatoma cells) was 0.2 µM.
